{
  "source": "patent US20190262457A1",
  "about": "“NOVEL ALKYLATING AGENT” (CHIBA-PREFECTURE, priority 2016, published 2019)",
  "format_in_all_cases": "cell-based, human",
  "key": {"[1]": {"tested_on": "RKO cells", "assay": "Cytotoxicity and IC50 comparison with CBI by WST assay, 48 hours", "conditions": "WST-8", "method": "(§1) From the cell lines mentioned above, a large intestine cancer cell line SW480 was used as cells expressing PD-1, and a large intestine cancer cell line RKO was used as cells expressing PD-L1. An experiment was conducted to compare toxicity and IC50 between the PIP-drug conjugate compound CCC07-01 and the alkylating agent CBI used as a drug conjugate therein. The cells of each line were inoculated at 3000 cells/well to a 96-well microplate and cultured overnight. On the next day, the cells were treated with the PIP-CBI conjugate (CCC07-01) or CBI having a concentration of 0.1, 1, 10, 30, 100, 300, or 1000 nM (1 μM) for 48 hours. Then, WST-8 reagent was added to each well using Cell counting kit-8, and the mixture was reacted for 2 hours. Then, the cell count was calculated at a wavelength of 450 nm by the colorimetric analysis method using a microplate reader. The method for calculating the cell count involved: 1) obtaining the mean value of a medium alone, 2) subtracting the mean value of the medium from each well, 3) obtaining the mean value of DMSO, 4) dividing the medium mean value-subtracted value by the mean value of DMSO and then multiplying by 100, and 5) obtaining the mean value of each treatment group and a standard deviation, and preparing a graph. IC50 was calculated according to the following expression: IC50=10(LOG(A/B)×(50−C)/(D−C)+LOG(B) wherein A: a higher concentration of two concentrations sandwiching 50%, B: a lower concentration of two concentrations sandwiching 50%, C: the rate of inhibition at B, and D: the rate of inhibition at A."}, "[2]": {"tested_on": "SW480 cells", "assay": "Cytotoxicity and IC50 comparison with CBI by WST assay, 48 hours", "conditions": "WST-8", "method": "as §1"}, "[3]": {"tested_on": "PD-1 gene", "assay": "Experiment to silence PD-1 gene (RT-PCR / real-time PCR)", "conditions": "SW480 cells, 100 nM, 6 hours", "method": "(§2) SW480 cells were cultured in a 6-well plate. On the next day, the cells were treated with 0, 1, 10, or 100 nM CCC07-01 for 6 hours. The cells were collected, and total RNA was extracted therefrom. The extraction employed RNeasy Plus Mini Kit (Qiagen N.V., CA). Next, cDNA was prepared by reverse transcription with the extracted RNA as a template according to Super Script VILO cDNA Synthesis kit (Invitrogen Corp., CA). RT-PCR was performed with the cDNA as a template under the following conditions: the conditions for PD-1 involved denaturation at 95° C. and then 33 cycles each involving 95° C. for 30 seconds, 56° C. for 30 seconds, and 72° C. for 30 seconds, followed by elongation reaction at 72° C. for 5 minutes. For a control, RT-PCR of GAPDH was performed using the same cDNA as above. The conditions for GAPDH involved denaturation at 95° C. and then 22 cycles each involving 95° C. for 30 seconds, 55° C. for 30 seconds, and 72° C. for 30 seconds, followed by elongation reaction at 72° C. for 5 minutes.\nEach RT-PCR product was electrophoresed on 2% agarose and stained with ethidium bromide. qPCR was further performed. […] A relative expression level was quantified with GAPDH as a control."}, "[4]": {"tested_on": "PD-L1 gene", "assay": "Experiment to silence PD-L1 gene (RT-PCR / real-time PCR), CCC07-01", "conditions": "RKO cells, 10 nM, 24 hours", "method": "as §2, with “RKO cells” for “SW480 cells”, “for 24” for “for 6”, “for PD-L1” for “for PD-1”, “then 25” for “then 33”, “seconds, 60°” for “seconds, 56°”\nEach RT-PCR product was electrophoresed on 2% agarose and then stained with ethidium bromide. qPCR was further performed. […] A relative expression level was quantified with GAPDH as a control."}},
  "data": [
    {"smiles": "CC(=O)Nc1cn(C)c(C(=O)Nc2cc(C(=O)Nc3cn(C)c(C(=O)Nc4cn(C)c(C(=O)NCCC(=O)Nc5cc(C(=O)Nc6cc(C(=O)NCCCC(=O)Nc7cc(C(=O)Nc8cn(C)c(C(=O)NCCC(=O)Nc9cc(C(=O)Nc%10cc(C(=O)Nc%11ccc%12[nH]c(C(=O)N%13CC(CCl)c%14c%13cc(O)c%13ccccc%14%13)cc%12c%11)n(C)c%10)n(C)c9)n8)n(C)c7)n(C)c6)n(C)c5)n4)n3)n(C)c2)n1", "note": "(stereo not shown) [CCC07-01]", "values": [
      {"measurement": "IC50", "setting": "[1]", "value": 4, "unit": "nM"},
      {"measurement": "IC50", "setting": "[2]", "value": 11, "unit": "nM"},
      {"measurement": "expression of PD-1", "setting": "[3]", "value": "markedly decreased"},
      {"measurement": "expression of PD-L1", "setting": "[4]", "value": "markedly decreased"}
    ]}
  ]
}
